Like-named read-outs stand apart in the source and are kept apart here.
What was measured:
JAK3 enzyme [1] = biological target: T1, JAK3 enzyme (Homo sapiens, UniProt P52333); assay: JAK Caliper Enzyme Assay at 4 μM ATP; assay type: biochemical
T1 sequence (P52333 1-1124): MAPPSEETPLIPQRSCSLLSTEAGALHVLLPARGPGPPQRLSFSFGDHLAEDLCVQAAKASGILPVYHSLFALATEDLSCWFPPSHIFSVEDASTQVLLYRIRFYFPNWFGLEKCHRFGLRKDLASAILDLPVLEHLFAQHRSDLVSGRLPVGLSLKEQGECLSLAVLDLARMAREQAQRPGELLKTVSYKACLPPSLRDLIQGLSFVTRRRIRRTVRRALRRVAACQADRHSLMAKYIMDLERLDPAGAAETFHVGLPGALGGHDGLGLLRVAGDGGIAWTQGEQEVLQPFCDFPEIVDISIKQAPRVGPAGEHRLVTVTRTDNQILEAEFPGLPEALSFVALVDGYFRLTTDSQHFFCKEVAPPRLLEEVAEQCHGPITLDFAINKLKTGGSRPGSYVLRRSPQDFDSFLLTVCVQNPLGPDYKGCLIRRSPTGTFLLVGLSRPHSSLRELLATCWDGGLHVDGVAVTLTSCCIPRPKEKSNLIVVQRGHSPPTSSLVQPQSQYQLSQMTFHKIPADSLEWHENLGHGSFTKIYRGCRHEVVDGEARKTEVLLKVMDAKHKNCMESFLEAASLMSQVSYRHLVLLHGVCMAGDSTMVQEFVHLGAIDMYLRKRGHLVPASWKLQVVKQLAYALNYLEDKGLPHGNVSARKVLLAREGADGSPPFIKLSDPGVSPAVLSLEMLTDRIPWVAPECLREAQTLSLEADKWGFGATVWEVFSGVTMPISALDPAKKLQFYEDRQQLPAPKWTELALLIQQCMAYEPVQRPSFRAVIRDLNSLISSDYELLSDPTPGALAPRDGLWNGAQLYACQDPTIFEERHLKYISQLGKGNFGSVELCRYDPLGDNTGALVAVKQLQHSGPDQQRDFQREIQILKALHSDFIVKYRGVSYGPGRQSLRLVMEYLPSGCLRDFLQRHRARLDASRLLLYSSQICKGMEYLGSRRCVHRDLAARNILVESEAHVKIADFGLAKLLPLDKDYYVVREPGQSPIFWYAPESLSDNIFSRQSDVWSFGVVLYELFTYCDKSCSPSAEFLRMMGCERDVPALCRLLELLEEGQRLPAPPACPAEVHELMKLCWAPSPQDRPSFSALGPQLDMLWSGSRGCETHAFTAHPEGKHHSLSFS
How it was run: (§1)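 Peptide phosphorylation by the kinase, adjusted to 20%-30% conversion, is measured by microfluidic separation of substrate and product on a Caliper LC3000. Compounds run as 11-point half-log series from a 600 μM DMSO top concentration.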

JAK3 enzyme [2] = biological target: T1, JAK3 enzyme; assay: JAK Caliper Enzyme Assay at 1 mM ATP; assay type: biochemical
How it was run: as §1

[3] = tested on: IL-15 induced P-STAT5 in human PBMC; assay: PBMC IL-15 Induced P-STAT5; assay type: cell-based
How it was run: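 Flow cytometry gated on total lymphocytes measured STAT5 staining (Alexa Fluor 647 antibody, overnight, 4 °C) in fixed, methanol-permeabilised human PBMC. Cells had received compound for 15 min at 37 °C (0.2% DMSO final), followed by 41 ng/mL final human IL-15 for 15 min.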

[4] = human PBMC, IL-15 final 41 ng/mL, read-out: PBMC IL15_pSTAT5_IC50

| IC50 (JAK3 enzyme [1]) [nM] | IC50 (JAK3 enzyme [2]) [nM] | Structure (SMILES) | IC50 ([3]; Homo sapiens, PBMC, read-out: PBMC IL15_pSTAT5_IC50 (nM)) [nM] | IC50 [3, 4] [nM] |
| --- | --- | --- | --- | --- |
| 1.24 | 160 | C=CC(=O)N1CCN(c2cnc3[nH]cc(C(=O)NC(CC)(CC)CO)c3n2)CC1(C)C [Example 163, 2-(4-acryloyl-3,3-dimethylpiperazin-1-yl)-N-[3-(hydroxymethyl)pentan-3-yl] 5H-pyrrolo[2,3-b]pyrazine-7-carboxamide] | – | 409 |
| 2.79 | 325 | C=CC(=O)N1CCC(Oc2cnc3[nH]cc(C(=O)NCC4(O)CCCC4)c3n2)CC1 (racemic) [Example 206, Racemic-2-[(1-acryloylpiperidin-4-yl)oxy]-N-[(1-hydroxycyclopentyl)methyl]-5H-pyrrolo[2,3-b]pyrazine-7-carboxamide] | – | 3100 |
| 6.26 | 1200 | C=CC(=O)N(C)C1CN(c2cnc3[nH]cc(C(=O)NCC)c3n2)C1 [Example 59, 2-{3-[acryloyl(methyl)amino]azetidin-1-yl}-N-ethyl-5H-pyrrolo[2,3-b]pyrazine-7-carboxamide] | – | 4870 |
| 2.71 | 384 | C=CC(=O)N1CCN(c2cnc3[nH]cc(C(=O)NC(COC)COC)c3n2)CC1(C)C (racemic) [Example 140, Racemic-2-(4-acryloyl-3,3-dimethylpiperazin-1-yl)-N-(1,3-dimethoxypropan-2-yl)-5H-pyrrolo[2,3-b]pyrazine-7-carboxamide] | – | 1710 |
| 2.44 | 165 | C=CC(=O)N1CCC(Nc2cnc3[nH]cc(C(=O)NCCc4nc5ccc(F)c(F)c5o4)c3n2)CC1 [Example 182, 2-[(1-acryloylpiperidin-4-yl)amino]-N-[2-(6,7-difluoro-1,3-benzoxazol-2-yl)ethyl]-5H-pyrrolo[2,3-b]pyrazine-7-carboxamide] | – | > 10000 |
| 0.627 | 29 | C=CC(=O)N1CCC(Nc2cnc3[nH]cc(C(=O)NCc4cnn(-c5cccc(F)c5)c4)c3n2)CC1 [Example 192, 2-[(1-acryloylpiperidin-4-yl)amino]-N-{[1-(3-fluorophenyl)-1H-pyrazol-4-yl]methyl}-5H-pyrrolo[2,3-b]pyrazine-7-carboxamide] | – | 907 |
| 4.05 | 515 | C=CC(=O)N1CCN(c2cnc3[nH]cc(C(=O)NCC(C)(C)C)c3n2)CC1(C)C [Example 285, 2-(4-acryloyl-3,3-dimethylpiperazin-1-yl)-N-(2,2-dimethylpropyl)-5H-pyrrolo[2,3-b]pyrazine-7-carboxamide] | – | 1790 |
| 1.65 | 99 | C=CC(=O)N1CC[C@@H](Nc2cnc3[nH]cc(C(=O)NCC)c3n2)[C@H](OC)C1 (single isomer, unassigned) [Example 26] | – | 1930 |
| 0.626 | 25 | C=CC(=O)N1CCC(Nc2cnc3[nH]cc(C(=O)NCc4nc5cc(F)ccc5o4)c3n2)CC1 [Example 177, 2-[(1-acryloylpiperidin-4-yl)amino]-N-[(5-fluoro-1,3-benzoxazol-2-yl)methyl]-5H-pyrrolo[2,3-b]pyrazine-7-carboxamide] | – | 420 |

| Structure (SMILES) | IC50 (JAK3 enzyme [1]) [nM] | IC50 (JAK3 enzyme [2]) [nM] | IC50 ([3]; Homo sapiens, PBMC, read-out: PBMC IL15_pSTAT5_IC50 (nM)) [nM] | IC50 [3, 4] [nM] |
| --- | --- | --- | --- | --- |
| C=CC(=O)N1CC[C@H](Oc2cnc3[nH]cc(C(=O)N[C@H](C)COC)c3n2)C1 [Example 54, 2-{[(3S)-1-acryloylpyrrolidin-3-yl]oxy}-N-[(2R)-1-methoxypropan-2-yl]-5H-pyrrolo[2,3-b]pyrazine-7-carboxamide] | 2.49 | 345 | 1640 | – |
| C=CC(=O)N1CC[C@H](Nc2cnc3[nH]cc(C(=O)N[C@H](C)COC)c3n2)C[C@@H]1C (stereo in doubt) [Example 354, 2-(((2S,4S)-1-Acryloyl-2-methylpiperidin-4-yl)amino)-N—((R)-1-methoxypropan-2-yl)-5H-pyrrolo[2,3-b]pyrazine-7-carboxamide] | 3.41 | 261 | – | 4520 |
| C=CC(=O)N1C[C@H](Nc2ncnc3[nH]ccc23)CC[C@@H]1[C@H](C)O (racemic) [Example 112] | 1.03 | 181 | – | 1010 |

From patent US10703756B2, “Pyrrolo[2,3-D]pyrimidinyl, pyrrolo[2,3-B]pyrazinyl, pyrrolo[2,3-B]pyridinyl acrylamides and epoxides thereof” (Pfizer Inc., priority 2015, dated 2020)
